Key:
[1] = biological target: T1, (α4)2(β2)3 nAChR (Homo sapiens, UniProt P17787+P43681); experiment: Two-electrode voltage-clamp of ACh-induced currents in Xenopus oocytes; assay type: cell-based
T1 construct: expressed in transfected cells; host or cells: Xenopus laevis oocytes injected with cRNA
Description: (§1) To begin to characterize LY2087101 interaction with the heteropentameric α4β2 nAChRs, we examined the selectivity of LY2087101 for the two α4β2 nAChR isoforms; high-agonist sensitivity (α4)2(β2)3 and low-agonist sensitivity (α4)3(β2)2 nAChRs. Xenopus oocytes were injected with α4 and β2 subunits RNAs at ratios 8:1 and 1:8 to favor expression of (α4)3(β2)2 and (α4)2(β2)3 nAChRs, respectively.
(§2) Ovarian lobules were surgically harvested from oocytes-positive female Xenopus laevis (NASCO, Fort Atkinson, WI) according to an animal use protocol approved by the Texas A&M Health Sciences Center Institutional Animals Care and Use Committee. The Texas A&M Health Sciences Center Research Facility is registered as an animal research facility with the United States Department of Agriculture and is fully accredited by the American Association for Accreditation of Laboratory Animal Care (AAALAC). For oocytes defolliculation, ovarian lobes were treated with 3 mg/ml collagenase type 2 (Worthington Biomedical, Lakewood, NJ) in Ca + 2-free buffer (85 mM NaCl, 2.5 mM KCl, 1 mM MgCl2, 5 mM HEPES, pH 7.6). Collagenase treatment was allowed to proceed for 3 hours at room temperature with gentle shaking then oocytes were washed several times with buffer to remove collagenase then with ND96-gentamicine buffer. Healthy Stage V and VI oocytes were visually selected and maintained at 18 °C in modified ND96-gentamicine buffer (96 mM NaCl, 2 mM KCl, 1.8 mM CaCl2, 1 mM MgCl2, 5 mM HEPES, 50 µg/ml gentamicin, pH 7.6). Oocytes were injected with 50–100 ng of the desired nAChR subunits cRNA mix at ratios of 8α:1β or 1α:8β to express nAChRs with subunit stoichiometries of 3α:2β (low agonist sensitivity) or 2α:3β (high agonist sensitivity), respectively.
(§3) Oocytes were continuously perfused with recording buffer (100 mM NaCl, 2 mM KCl, 1 mM CaCl2, 0.8 mM MgCl2, 1 mM EGTA, 10 mM Hepes, pH 7.5) except during periods of drug applications.

[2] = biological target: T2, (α4)3(β2)2 nAChR (Homo sapiens, UniProt P17787+P43681); experiment: as above; assay type: cell-based
T2 construct: expressed in transfected cells; host or cells: Xenopus laevis oocytes injected with cRNA
T2 sequence (P43681 29-627 limits assumed): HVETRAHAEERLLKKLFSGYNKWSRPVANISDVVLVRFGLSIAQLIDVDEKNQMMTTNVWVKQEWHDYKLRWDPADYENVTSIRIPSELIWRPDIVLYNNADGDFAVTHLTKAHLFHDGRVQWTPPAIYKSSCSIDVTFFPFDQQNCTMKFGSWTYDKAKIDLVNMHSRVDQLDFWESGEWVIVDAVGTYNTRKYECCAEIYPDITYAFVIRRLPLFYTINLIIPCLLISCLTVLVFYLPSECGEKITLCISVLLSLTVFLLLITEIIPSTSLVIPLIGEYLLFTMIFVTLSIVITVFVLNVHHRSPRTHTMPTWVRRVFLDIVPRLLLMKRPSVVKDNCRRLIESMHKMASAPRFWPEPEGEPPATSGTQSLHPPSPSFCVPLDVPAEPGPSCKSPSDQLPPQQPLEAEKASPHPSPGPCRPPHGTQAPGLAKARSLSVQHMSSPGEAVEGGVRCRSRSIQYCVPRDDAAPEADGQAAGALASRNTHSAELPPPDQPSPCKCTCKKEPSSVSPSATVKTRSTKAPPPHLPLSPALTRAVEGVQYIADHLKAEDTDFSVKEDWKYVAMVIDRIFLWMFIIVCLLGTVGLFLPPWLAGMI
T2 sequence (P17787 26-502): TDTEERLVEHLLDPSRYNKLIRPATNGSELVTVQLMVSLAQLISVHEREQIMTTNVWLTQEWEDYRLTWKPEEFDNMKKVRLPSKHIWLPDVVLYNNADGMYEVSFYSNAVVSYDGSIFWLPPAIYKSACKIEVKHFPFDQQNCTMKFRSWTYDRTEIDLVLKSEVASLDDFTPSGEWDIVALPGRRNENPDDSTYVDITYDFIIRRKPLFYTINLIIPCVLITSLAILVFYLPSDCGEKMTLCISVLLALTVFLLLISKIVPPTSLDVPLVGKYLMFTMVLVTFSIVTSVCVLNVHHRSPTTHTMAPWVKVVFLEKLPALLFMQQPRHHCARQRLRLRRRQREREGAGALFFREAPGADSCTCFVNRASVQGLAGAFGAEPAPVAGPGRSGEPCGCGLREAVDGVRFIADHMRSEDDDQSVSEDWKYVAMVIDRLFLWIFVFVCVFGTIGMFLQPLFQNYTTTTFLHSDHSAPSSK
Description: as §1, §2, §3

[3] = ACh alone (control), normalized to 1 mM ACh
[4] = in the presence of 1 µM LY2087101

T1 sequence (P43681 29-627 limits assumed): as the sequence (P43681 29-627 limits assumed) above
T1 sequence (P17787 26-502): as the sequence (P17787 26-502) above

CC(=O)OCC[N+](C)(C)C [ACh, Acetylcholine chloride]
ACh h (Hill coefficient) ([1]; ACh alone (control)): 1.2 ± 0.03 | ACh Imax [1, 3]: 100 ± 1% | ACh h (Hill coefficient) [1, 4]: 1.0 ± 0.04 | ACh h (Hill coefficient) ([2]; ACh alone (control)): 0.66 ± 0.06 | ACh Imax [2, 3]: 117 ± 6% | ACh h (Hill coefficient) [2, 4]: 0.7 ± 0.1
